Reference: US7455990B2, “Method of extracting recombinant hexose oxidase” (priority 1999, dated 2008)
Marks after values point to notes of the source that are not given here.

Key:
[1] = system: cell suspension (HOX9910B); assay: Comparison between CTAB and other emulsifiers for extraction of HOX; format: cell-based, Hansenula polymorpha; conditions: 20 h, 25°C, control (cells and buffer) = 100
Protocol: Five mL of cell suspension (cells+supernatant) was added to a 15 mL centrifuge tube (HOX9910B, 305 g cells/liter wet weight, 1.6 U/ml extracellular HOX activity). Cells were separated by centrifugation at 4000 g for 10 min. Cells were then re-suspended in 4.0 mL 25 mM citric acid, pH 6.3 supplemented with either CTAB, emulsifiers SLL, YN, capric acid, lysolecithin, or lecithin. The cells were then incubated for 20 hours at 25° C. (500 rpm).

Hansenula polymorpha [2] = assay: HOX extraction with different quaternary ammonium compounds; format: cell-based; conditions: final concentration 0.4% (w/v); 24 h, 25°C, 200 RPM; LTAB = 100
Protocol: Several quaternary ammonium compounds were tested with respect to extraction of the intracellular HOX enzyme from Hansenula polymorpha. A sample of fermentation broth was withdrawn from a 6 L scale fermentation where the biomass concentration was approximately 340 g wet weight per L. One mL of a 4% (w/v) solution of each of the quaternary ammonium compounds listed in Table 8 was added to 9 mL of fermentation broth in plastic tubes. After 24 h of incubation at 25° C. at 200 RPM the tubes were centrifuged 10 min. at 12000 g. The supernatants were analysed for HOX activity using the HOX assay as previously described.

[3] = system: cell suspension (HOX9926-7); assay: Extraction of HOX by CTAB combined with salts and at different temperatures; format: cell-based, Hansenula polymorpha; conditions: for HOX activity, %: 26 h, 25°C, control = 100
Protocol: In order to examine the mechanism of the CTAB effect, CTAB was combined with chaotrophic and nonchaotrophic salts. Five mL cell suspension (cells+supernatant) was added to a 15 mL centrifuge tube (HOX9926-7, 317 g cells/liter wet weight, 0.3 U/mL extracellular HOX activity). Cells were separated by centrifugation at 4000 g for 10 min. The supernatant was then supplemented with either CTAB, CTAB+NaCl, CTAB+urea, CTAB+ammonium sulphate, or the non-ionic detergent, octyl-glucoside. The cells were then re-suspended in 4.0 mL supernatant and incubated for 26 hours at 25° C. (500 rpm). In this experiment, the effect of shaking and temperature was also investigated. After incubation, the cell-free extract was used to estimate HOX activity using the HOX assay as outlined in Example 4.

[4] = Determination of LTAB by LC-ESI-MS (optimised method) in fermentation supernatants; conditions: 0.20% (w/v) LTAB added
Protocol: The analysis method for the quaternary ammonium compounds was optimised by using a different column, and by using different mobile phase. Two 90 L scale fermentations (Vest0002b with a biomass concentration of 314 g/L wet cells and Vest0003b with a biomass concentration of 332 g/L wet cells) were added LTAB to a concentration of 0.20% (w/v), and HOX was extracted for 24 h. A sample from each fermentation was centrifuged at 10000 g for 10 minutes, and the resulting supernatants were withdrawn for LTAB analysis. The following method was used to quantify the LTAB content in the supernatants by means of LC-ESI-MS on a Hewlett-Packard 1100 HPLC-MS system consisting of the following units:
The system was equipped with a PLRP-S, 100 Å, 5 μm, 250×4.6 […] id. (Polymer Laboratories) column. Column temperature was 25° C.
The chromatographic conditions were a mobile phase consisting of 0.1% heptafluorobutyric acid in methanol. The column was run with a solvent flow rate of 1.00 mL/min and an injection volume of 5 μL. The samples were diluted 25 fold with methanol and filtered through Gelman GHP Acrodisc 13 mM Minispike […] before injection.
The detector settings were the following: SIM parameters: m/z 228.1 (lauroyltrimethylammonium cation). […]

H. polymorpha = assay: Comparison of mechanical and LTAB recovery of glucan lyase (DNS method); format: cell-based, Hansenula polymorpha; conditions: induced cells, transformants 2 and 8; 0.2% LTAB versus Mini Bead-Beater
Protocol: The cells are resuspended in 5 mM sodium acetate pH=5.5 with 0.2% LTAB at 30% wet biomass in order to lyse the cells and release the intracellular glucan lyase.
The tubes are incubated over night with shaking at 37° C. The cells are harvested by centrifuging at 4000 rpm in 10 minutes and the glucan lyase activity is determined in the cell-free extract and in the pellet. This is done to check if LTAB had opened the cells successfully before starting the purification of glucan lyase.
Two transformants that expressed a high level of glucan lyase (transformant number 2 and 8) are grown at 24° C.
To compare the specific activity under repressed and induced conditions samples are collected when the cells are grown in YND+2% glucose (repressed) and in YND+1% glycerol with 1% methanol added on the second day of growth (induced).
The assay is performed as described in S. Yu et al., 1998. The red colour indicates glucan lyase activity is much stronger when the induced cells are opened with LTAB compared with opening of the cells mechanically on a Mini Bead-Beater (E1-E12 compared with C1-C12). […] When the cells are grown in YND+2% glucose a very low specific activity is observed as expected since the FMD promoter is repressed in this media. […] The assay detected a quite high glucan lyase activity in the pellet.

[5] = system: Pichia pastoris strain #349; assay: HOX extraction with LTAB from Pichia pastoris; format: cell-based; conditions: 180 μL of 10% (w/v) LTAB in 9 mL broth; 24 h, 30°C; control = 100
Protocol: The extracting effect of LTAB was tested on the Pichia pastoris strain #349 that produces HOX intracellularly. A sample of fermentation broth was withdrawn from a 6 L scale fermentation where the biomass concentration was approximately 232 g wet weight per L. Nine mL of fermentation broth was added to plastic tubes together with 0 (control) or 180 μL of a 10% (w/v) solution of LTAB. After 24 h of incubation at 30° C. at 20 RPM the tubes were centrifuged 5 min. at 9000 g. The supernatants were analysed for HOX activity using the HOX assay as previously described.

Hansenula polymorpha [6] = assay: Time course of HOX extraction with CTAB, LTAB and CTAC; format: cell-based; conditions: 25°C
Protocol: The time course of HOX extraction was studied with CTAB, LTAB and CTAC. A fermentation sample containing 280 g wet weight of Hansenula polymorpha per L was withdrawn from the fermentor. A 4% (w/v) solution of CTAB, LTAB and CTAC was added to a final concentration of 0.2 or 0.4% (w/v) to plastic tubes containing 9 mL of fermentation broth. After 0, 7, 17, 24, and 48 h of incubation at 25° C. at 200 RPM the tubes were centrifuged 10 min. at 12000×g. The supernatants were analysed for HOX activity using the HOX assay as previously described.

Hansenula polymorpha [7] = assay: HOX extraction with CTAB compared to Triton X-100; format: cell-based; conditions: for HOX activity: 22 h, 25°C, 200 rpm, control ferment 1.2
Protocol: CTAB or Triton X-100 was added to 5 mL of ferment, (sample HOX9954, Mut 45, 18.10.99, HVP) in a centrifuge tube. Water was added to the control. The samples were incubated at 25° C. for 22 h at 200 rpm. After incubation the samples were centrifuged and the supernatant was analyzed for HOX activity as previously described.

[8] = 0.4% in 25 mM citric acid pH 6.3
[9] = 0.5% in 25 mM citric acid pH 6.3
[10] = 1.0% in 25 mM citric acid pH 6.3

3-sn-phosphatidylcholine [lecithin]
HOX activity, % [1, 8]: 140%

CCCCCCCCCCCCCC[N+](C)(C)C.[Cl-] [MTAC, Myristyl Trimethyl Ammonium Chloride]
Extracted HOX activity normalised with extracted amount with LTAB (Hansenula polymorpha [2]): 71

CCCCCCCCCCCCCCCCCC(=O)[N+](C)(C)C.[Br-] [STAB, Stearoyl Trimethyl Ammonium Bromide]
Extracted HOX activity normalised with extracted amount with LTAB (Hansenula polymorpha [2]): 38

CCCCCCCCCC(=O)O [capric acid, decanoic acid]
HOX activity, % [1, 9]: 120%
HOX activity, % [1, 10]: 140%

CCCCCCCCCCCC(=O)OC(C)C(=O)OC(C)C(=O)[O-].[Na+] (stereo not shown) [emulsifier SSL, Sodium Lauroyl Lactylate]
HOX activity, % [1, 9]: 160%
HOX activity, % [1, 10]: 140%

CCCCCCCCO[C@@H]1O[C@H](CO)[C@@H](O)[C@H](O)[C@H]1O [octyl-glycoside, octyl-glucoside]
extracting effect on HOX ([3]; 0.2% and 0.4%): no significant extracting effect
HOX activity, % ([3]; 0.2%): 130%
HOX activity, % ([3]; 0.4%, 500 rpm): 190%

Lauroyl Trimethyl Ammonium Bromide [LTAB]
share of the added LTAB found in the cell free fraction [4]: about 27%
specific activity of glucan lyase, LTAB-treated cells versus mechanical opening (H. polymorpha): ~60 fold
Extracted HOX activity normalised with extracted amount with LTAB (Hansenula polymorpha [2]): 100
Extracted HOX activity normalised to the control tube without LTAB [5]: 3000^c
Extracted HOX normalised to 0.4% (w/v) LTAB after 48 h (Hansenula polymorpha [6]; 0.2% (w/v), 0 h): 5
Extracted HOX normalised to 0.4% (w/v) LTAB after 48 h (Hansenula polymorpha [6]; 0.2% (w/v), 7 h): 15
Extracted HOX normalised to 0.4% (w/v) LTAB after 48 h (Hansenula polymorpha [6]; 0.2% (w/v), 17 h): 49
Extracted HOX normalised to 0.4% (w/v) LTAB after 48 h (Hansenula polymorpha [6]; 0.2% (w/v), 24 h): 65
Extracted HOX normalised to 0.4% (w/v) LTAB after 48 h (Hansenula polymorpha [6]; 0.2% (w/v), 48 h): 78
Extracted HOX normalised to 0.4% (w/v) LTAB after 48 h (Hansenula polymorpha [6]; 0.4% (w/v), 0 h): 6 ± 1,
Extracted HOX normalised to 0.4% (w/v) LTAB after 48 h (Hansenula polymorpha [6]; 0.4% (w/v), 7 h): 25
Extracted HOX normalised to 0.4% (w/v) LTAB after 48 h (Hansenula polymorpha [6]; 0.4% (w/v), 17 h): 74
Extracted HOX normalised to 0.4% (w/v) LTAB after 48 h (Hansenula polymorpha [6]; 0.4% (w/v), 24 h): 83 ± 8,
Extracted HOX normalised to 0.4% (w/v) LTAB after 48 h (Hansenula polymorpha [6]; 0.4% (w/v), 48 h): 100 ± 25,

lysophosphatidylcholine [lyso-lecithin]
HOX activity, % [1, 8]: 260%

polyethoxylated octylphenol [Triton X-100]
HOX activity (Hansenula polymorpha [7]; 0.1%): 1.5 U/mL
extracting effect on HOX (Hansenula polymorpha [7]; 0.1-1.0%): no extracting effect
HOX activity (Hansenula polymorpha [7]; 0.2%): 1.6 U/mL
HOX activity (Hansenula polymorpha [7]; 0.4%): 1.8 U/mL
HOX activity (Hansenula polymorpha [7]; 0.6%): 1.9 U/mL
HOX activity (Hansenula polymorpha [7]; 1.0%): 1.9 U/mL
